Laboratory results as given in paper PMC11120720, “Linking Variability in Phytochemical Composition with Safety Profile of Thymus carnosus Boiss. Extracts: Effect of Major Compounds and Evaluation of Markers of Oxidative Stress and Cell Death” (International Journal of Molecular Sciences, 2024).
Read-outs that look alike come from different tables or passages of the source.

How the values were obtained:
HepG2 cells [1] = experiment: Mitochondrial membrane potential (JC-1, flow cytometry), HepG2; format: cell-based, human; details: positive control, 5 µM
Description: (§1) Flow cytometry was used to analyze the effect of T. carnosus extracts on intracellular ROS, modulation of mitochondrial membrane potential (MMP), cell cycle arrest, and apoptotic/necrotic cell death induction.
(§2) Both one- and two-color assays were performed using a BD Accuri™ C6 cytometer (Becton Dickinson, Franklin Lakes, NJ, USA), and 10,000 gated events were collected from each sample [1]. For flow cytometry assays, cells were handled as described previously but seeded at a density 5 × 10^4 cells/mL (750 μL/well) in 12-well plates. Caco-2 and HepG2 cells were incubated for 24 h with the extracts (100 µg/mL) or individual phytochemicals (50 µM) diluted in FBS-free culture media h. After incubation, test solutions were removed; the cells were washed with PBS and detached from the plates using trypsin-EDTA. Once transferred to centrifuge tubes, the cells were centrifuged (bench micro-centrifuge; 3000 rpm; 3 min), the supernatant was discarded, and a new wash cycle was performed. The cells were then equally divided for each assay. A negative control was used in all assays consisting of nonexposed cells incubated only with culture media.
(§3) Mitochondrial membrane potential (MMP) was evaluated using 5,5″,6,6″-tetrachloro-1,1″,3,3″-tetraethylbenzimidazolylcarbocyanineiodide (JC-1). Cells were processed as described for DCFDA but incubated with 200 µL of JC-1 (2 µM, in FBS-free DMEM) for 20 min (37 °C, in the dark).

Caco-2 cells [2] = details: positive control, 5 µM
Description: as §1, §2, §3

[3] = tested on: nasopharyngeal carcinoma cells NPC-BM; design: method as in PMID 34165247; details: cited from earlier work
Caco-2 cells [4] = experiment: Cell cycle arrest (PI, flow cytometry), Caco-2; format: cell-based; details: compound 50 µM, 24 h
Description: (§4) The cells were then equally divided for each assay.
(§5) Cell cycle arrest assessment was performed as described in [1]. Cells were processed as described above until cell detachment and centrifuged, after which the second washing step was performed with ice-cold PBS (0 °C). After centrifugation, the supernatant was discarded, and cells were fixed with 500 µL of ethanol:PBS solution (70:30, % v/v, previously cooled at −20 °C) for at least 4 h at −20 °C. After fixation, two washing cycles were performed: the first with ice-cold PBS (0 °C) and the second with room-temperature PBS, followed by the addition of 200 µL of a PBS solution containing PI (50 µg/mL), RNAse A (50 µg/mL), and Triton X-100 (0.1%). Cells were incubated for 30 min at 37 °C, and then cells were washed once with PBS to remove the staining solution. After resuspension in PBS, the data were acquired.

[5] = tested on: nasopharyngeal carcinoma cells NPC-039; design: method as in PMID 34165247; details: cited from earlier work
Caco-2 cells [6] = details: cited from earlier work
HepG2 cells [7] = experiment: Cell cycle arrest (PI, flow cytometry), HepG2; format: cell-based, human; details: compound 50 µM, 24 h
Description: as §4, §5

HepG2 cells [8] = details: cited from earlier work
HepG2 cells [9] = experiment: Alamar Blue cell viability assay, HepG2; format: cell-based, human
Description: (§6) The safety profile of T. carnosus AD and HE extracts was evaluated in Caco-2 and HepG2 cells using an Alamar Blue® (Invitrogen; Alfagene, Lisboa, Portugal) assay. An initial screening was performed for all extracts at concentrations ranging between 100 and 1000 µg/mL. Due to the higher toxicity of the HE extracts, which was previously described for various extracts of Thymus species using the same extraction methods (e.g., T. mastichina and Thymus zygis), a different set of concentrations was used for the HE extracts (between 100 and 300 µg/mL for Caco-2 cells and 50 and 150 µg/mL for HepG2 cells). Figure 1 presents the data related to the cell viability assays in Caco-2 (panels A–E) and HepG2 cells (panels F–J) exposed to T. carnosus extracts, as indicated.
(§7) The safety profile of T. carnosus extracts was assessed in Caco-2 and HepG2 cells. Caco-2 (human colon adenocarcinoma cell line) were obtained from CLS (Cell Lines Service, Eppelheim, Germany), and HepG2 (human hepatocellular carcinoma cell line) were obtained from ATCC (American Type Culture Collection, Manassas, VA, USA).
(§8) Cell culture maintenance, handling, subculturing, and seeding were performed as described by Silva et al., 2020 [5], and cell viability was assessed using an Alamar Blue® assay, as described by Andreani et al., 2014 [64]. Concentrations ranged between 100 and 1000 µg/mL for AD extracts in both cell lines and 100 to 300 µg/mL or 50 to 150 µg/mL for HE extracts in Caco-2 and HepG2 cells, respectively. The effect of individual compounds on cell viability was assessed for concentrations ranging from 50 to 300 µM. All test solutions were prepared by diluting the samples in FBS-free culture media from the stock solutions described in Section 3.2, just prior to being used.
(§9) The results are presented as mean ± SD of at least three independent assays. The calculation of IC50 values was performed as described by Silva et al., 2020 [5]. Data analysis, graphical design, and statistical analysis were performed using Microsoft Office Excel (Professional Plus 2019; Microsoft Corporation, Washington, DC, USA) and GraphPad Prism (Version 8; GraphPad Software Inc., San Diego, CA, USA). Flow cytometry data analysis was performed using BD Accuri™ C6 Software, version 1.0.264.21 (Becton Dickinson, San Diego, CA, USA).

Caco-2 cells [10] = experiment: Alamar Blue cell viability assay, Caco-2; format: cell-based, human; details: Caco-2; for IC50: Homo sapiens
Description: as §6, §7, §8, §9

HepG2 cells [11] = experiment: Intracellular ROS (DCFDA, flow cytometry), HepG2; format: cell-based, human; details: compound 50 µM, 24 h
Description: as §4
(§10) Intracellular ROS level assessment was performed as described by Silva et al., 2022 [65], using dichlorodihydrofluorescein diacetate (DCFDA). Cells obtained in the previous step were centrifuged, the supernatant discarded, and 200 µL of DCFDA (10 µM in FBS-free DMEM) was added. Cells were incubated for 45 min (37 °C, in the dark), washed to remove excess probe, and resuspended in PBS for data acquisition.

HepG2 cells [12] = experiment: Annexin V-FITC/PI apoptosis/necrosis, HepG2; format: cell-based, human; details: compound 50 µM, 24 h
Description: as §4
(§11) For the assessment of apoptotic/necrotic cell death, an Annexin V-FITC (Thermo Fisher Scientific, Waltham, MA, USA) and propidium iodide (PI; Merck, Darmstadt, Germany) double-staining assay was used to evaluate the apoptotic/necrotic cell death induced by T. carnosus extracts and by individual phytochemicals, as described previously. Briefly, after detachment and washing, the supernatant was discarded, and 200 µL of Annexin V-FITC (1:200 dilution in Annexin-binding buffer [10 mM HEPES sodium salt, 150 mM NaCl, 5 mM KCl, 5 mM MgCl2, and 1.8 mM CaCl2; pH = 7.4]) was added. Cells were incubated for 20 min (room temperature, in the dark). After incubation, 5 µL of propidium iodide (PI; 50 µg/mL) was added, the cells were incubated for 5 min on ice (in the dark), and the data were acquired.

Caco-2 cells [13] = experiment: Annexin V-FITC/PI apoptosis/necrosis, Caco-2; format: cell-based; details: compound 50 µM, 24 h
Description: as §4, §11

[14] = tested on: hepatocarcinoma cells (HuH7); design: method as in PMID 20415421; details: 20-80 µM; cited from earlier work
Caco-2 cells [15] = experiment: Intracellular ROS (DCFDA, flow cytometry), Caco-2; format: cell-based; details: compound 50 µM, 24 h
Description: as §4, §10

[16] = design: method as in PMID 31344882, PMID 26042707; details: cited from earlier work

## N#CC(C#N)=NNc1ccc(OC(F)(F)F)cc1 [FCCP, carbonyl cyanide p-trifluoromethoxyphenylhydrazone]
HepG2 cells [1]
  JC-1 FL2/FL1 ratio normalized by negative control, HepG2: 0.10 ± 0.01
  reduction in MMP, HepG2: ~ 90%
Caco-2 cells [2]
  JC-1 FL2/FL1 ratio normalized by negative control, Caco-2: 0.06 ± 0.01
  reduction in MMP, Caco-2: ~ 94%

## O=c1cc(-c2ccc(O)c(O)c2)oc2cc(O[C@@H]3O[C@H](CO)[C@@H](O)[C@H](O)[C@H]3O)cc(O)c12 [Luteolin-7-O-glucoside, luteolin-7-O-glucoside]
[3]; 20, 40 and 80 µM
  MMP modulation, NPC-BM: MMP depolarization
[3]
  cell cycle effect, NPC-BM: cell cycle arrest in the S and G2/M phases
Caco-2 cells [4]
  cell cycle effect, Caco-2: cell cycle arrest in G0/G1
[5]; 20, 40 and 80 µM
  MMP modulation, NPC-039: MMP depolarization
[5]
  cell cycle effect, NPC-039: cell cycle arrest in the S and G2/M phases
Caco-2 cells [6]; read-out: concentration reducing Caco-2 cell viability to 50% of control, 48 h
  IC50: ~55 µM
HepG2 cells [7]
  cell cycle effect, HepG2: induced cell cycle arrest in both cell lines but in different phases
HepG2 cells [8]; read-out: concentration reducing HepG2 cells' viability to ~50%
  IC50: 44.6 µM
HepG2 cells [9]; 300 µM, 48 h
  reduction in HepG2 cell viability: ~ 30%
HepG2 cells [9]; 48 h exposure
  concentrations giving significant effect on HepG2 cell viability: ≥ 100 µM
Caco-2 cells [10]
  concentrations reducing Caco-2 cell viability (p < 0.05): ≥ 75 µM
HepG2 cells [11]
  change in intracellular ROS, HepG2: significant (p < 0.05) increase in intracellular HepG2 ROS levels
HepG2 cells [12]
  cell death induction, HepG2: did not induce cell death
Caco-2 cells [13]
  cell death induction, Caco-2: did not induce cell death

## CC1(C)CC[C@]2(C(=O)O)CC[C@]3(C)C(=CC[C@@H]4[C@@]5(C)CC[C@H](O)C(C)(C)[C@@H]5CC[C@]43C)[C@@H]2C1 [Oleanolic acid, oleanolic acid]
[14]
  MMP modulation, HuH7: reduce MMP
Caco-2 cells [4]
  cell cycle effect, Caco-2: cell cycle arrest in G0/G1
Caco-2 cells [15]
  change in intracellular ROS, Caco-2: increase in ROS
Caco-2 cells [6]; 24 h
  concentrations reducing Caco-2 cell viability: ≥ 5 µM
HepG2 cells [8]; 48 h
  concentrations reducing HepG2 cell viability: ≥ 2 µM
HepG2 cells [8]; read-out: IC50, HepG2 cells, 72 h
  IC50: > 100 µM
HepG2 cells [9]; Homo sapiens, HepG2, 24 h exposure, read-out: IC50 (µM) - HepG2 cells: 24 h
  IC50: 150 ± 7.66 µM
Caco-2 cells [10]; 24 h exposure, read-out: IC50 (µM) - Caco-2 cells: 24 h
  IC50: 78.5 ± 3.57 µM
Caco-2 cells [10]; 48 h exposure, read-out: IC50 (µM) - Caco-2 cells: 48 h
  IC50: 45.9 ± 2.47 µM
HepG2 cells [11]
  change in intracellular ROS, HepG2: significant (p < 0.05) increase in intracellular HepG2 ROS levels
[16]
  lipophilicity: high lipophilicity
  water solubility: poor water solubility
HepG2 cells [12]
  cell death induction, HepG2: slight reduction in the percentage of healthy cells
Caco-2 cells [13]
  percentage of cells in late apoptosis, Caco-2: ~ 29%
  percentage of cells in necrosis, Caco-2: ~ 50%

## COc1cc(/C=C/C(=O)CC(=O)/C=C/c2ccc(O)c(OC)c2)ccc1O [curcumin]
HepG2 cells [8]; 27-108 µM
  MMP modulation, HepG2: mitochondrial membrane hyperpolarization in HepG2 cells, followed by depolarization

## O=c1c(O[C@@H]2O[C@H](CO)[C@@H](O)[C@H](O)[C@H]2O)c(-c2ccc(O)c(O)c2)oc2cc(O)cc(O)c12 [quercetin-3-O-glucoside]
Caco-2 cells [6]
  cytotoxicity in Caco-2 cells relative to quercetin aglycone: lower cytotoxicity in Caco-2 cells than aglycone

## O=C(O)[C@H]1O[C@@H](Oc2c(-c3ccc(O)c(O)c3)oc3cc(O)cc(O)c3c2=O)[C@H](O)[C@@H](O)[C@@H]1O [quercetin-3-O-glucuronide]
Caco-2 cells [6]
  cytotoxicity in Caco-2 cells relative to quercetin aglycone: lower cytotoxicity in Caco-2 cells than aglycone
